Laboratory results from US4999444A, “Novel neutral mixed ligand platinum(II) and platinum(IV) complexes” (Warner-Lambert Co., priority 1989, dated 1991).
Where two headings read alike, the source gives them in different places.

Experiments:
L1210PtR4 = assay: In vitro cytotoxicity (ID50, 72 h growth inhibition), L1210PtR4; type: cell-based, murine; conditions: for ID50: in vitro, 72 h
Description: (§1) ID50 values are the concentration of complex required to inhibit the in vitro growth of treated cells to a level of 50% of that for untreated cells over a 72-hour period. The cell lines are suspended in appropriate media at a concentration which results in the cells remaining in log phase growth throughout the treatment period. Serially diluted drug is added to duplicate wells containing the cell growth. After 72 hours of incubation of the cell lines in 5% CO2, the cells are counted and the ID50 values determined.
(§2) Resistance ratio values shown in Table 1 were calculated by dividing the ID50 values against the resistant cell lines by the ID50 values against the normal cell lines. The resistance ratio values shown in the table indicate a measure of the degree of resistance of the cell line to a particular drug.

[1] = tested on: P-388/Pt (Cisplatin Resistant); assay: In vivo antitumor activity, P-388 (Lymphocytic Leukemia), P-388/Pt (Cisplatin Resistant); parameters: species or system mice (murine leukemia); conditions: IP, Days 1, 5, 9; for % T/C: best responses
Excerpt: (§3) The screening tests employing these cell lines are described in Geran et al., "Protocols for Screening Chemical Agents and Natural Products Against Animal Tumors and Other Biological Systems," Cancer Chemotherapy Reports, Part 3, Vol. 3, No. 2, pages 1-85 (1972). The L1210 and P388 screening methods have been cited as the best tools for predicting clinical utility of drugs in the treatment of human solid tumors as well as human leukemias and lymphomas (Venditti, "Relevance of Transplantable Animal-Tumor Systems to the Selection of New Agents for Clinical Trial," Pharmacological Basis of Cancer Chemotherapy, […] Pub. Co. (1975)).
^g Schedule: Days 1, 5, 9

P388Pt4 = assay: In vitro cytotoxicity (ID50, 72 h growth inhibition), P388Pt4; type: cell-based, murine; conditions: for ID50: in vitro, 72 h
Description: as §1, §2

P388S = assay: In vitro cytotoxicity (ID50, 72 h growth inhibition), P388S; type: cell-based, murine
Description: as §1

L1210DACH = assay: In vitro cytotoxicity (ID50, 72 h growth inhibition), L1210DACH (Pt(DACH)Cl2-resistant L1210); type: cell-based, murine; conditions: for ID50: in vitro, 72 h
Description: as §1, §2

L1210DDP5 = assay: In vitro cytotoxicity (ID50, 72 h growth inhibition), L1210DDP5; type: cell-based, murine; conditions: for ID50: in vitro, 72 h
Description: as §1, §2

L1210S = assay: In vitro cytotoxicity (ID50, 72 h growth inhibition), L1210S; type: cell-based, murine
Description: as §1

[2] = tested on: L-1210/Pt Leukemia (Cisplatin Resistant); assay: In vivo antitumor activity in mice, L-1210/Pt Leukemia (Cisplatin Resistant); parameters: species or system mice (murine leukemia); conditions: IP, Days 3, 7, 11; for % T/C: best responses
L-1210 Leukemia = assay: In vivo antitumor activity in mice, L-1210 Leukemia; parameters: species or system mice (murine leukemia); conditions: IP, Days 3, 7, 11; for % T/C: best responses
Excerpt: as §3
In Table 2, the ratio of median survival time of laboratory mice which had been treated with the test compound to untreated control animals is expressed as a percentage (%T/C values). […] Data for the prior art complex cisplatin is included for comparison.
^a Inoculum: 10,000 cells (IP)
^b Schedule: Days 3, 7, 11

[3] = tested on: parent L1210 and P388 leukemia cell lines; assay: In vivo activity against parent L1210 and P388 leukemia; parameters: species or system mice (murine leukemia)
Excerpt: as §3
(§4) In Table 2, the ratio of median survival time of laboratory mice which had been treated with the test compound to untreated control animals is expressed as a percentage (%T/C values). Laboratory mice were implanted intraperitonealy with the L1210 murine leukemia cell line on Day 0 and treated with intraperitoneal injections of representative platinum complexes of the present invention on Days 3 and 7 at the dosages indicated. Data for the prior art complex cisplatin is included for comparison.

[4] = tested on: L1210 and P388 murine leukemia cell lines; assay: Antitumor activity in L1210 and P388 murine leukemia, in vitro and in vivo; conditions: in vitro and in vivo test results
Description: as §1, §3
In Table 2, the ratio of median survival time of laboratory mice which had been treated with the test compound to untreated control animals is expressed as a percentage (%T/C values). […]

[5] = tested on: cisplatin-resistant cells; assay: Activity against cisplatin-resistant cells in vitro and in vivo; parameters: species or system murine
Description: as §1, §2, §4

[6] = first pair of lines, 5.0 mg/kg/injection
[7] = second pair of lines, 5.0 mg/kg/injection
[8] = ID50 resistant line / ID50 normal line, 4320 min
[9] = first pair of lines, 3.7 mg/kg/injection
[10] = second pair of lines, 3.7 mg/kg/injection

SMILES: N.N.[Cl][Pt][Cl] [Cisplatin, cis-diaminedichloroplatinum(II), reference compound]
- ID50 (L1210PtR4): 7.84 µg/mL
- Log10 Kill Net [1, 6]: 6.8
- % T/C [1, 6]: 261%
- Log10 Kill Net [1, 7]: -1.5
- % T/C [1, 7]: 132%
- ID50 (P388Pt4): 10.0 µg/mL
- ID50 (P388S): 0.128 µg/mL
- ID50 (L1210DACH; L1210DACH): 0.52 µg/mL
- ID50 (L1210DDP5): 4.11 µg/mL
- ID50 (L1210S): 0.375 µg/mL
- 60 Day Survivors ([2]; 4.0 mg/kg/injection): 0/6
- Log10 Kill Gross ([2]; 4.0 mg/kg/injection): 0.7
- Log10 Kill Net ([2]; 4.0 mg/kg/injection): -2.5
- MLS (median life span) ([2]; 4.0 mg/kg/injection): 11.1 days
- % T/C ([2]; 4.0 mg/kg/injection): 109%
- 60 Day Survivors ([2]; 6.0 mg/kg/injection): 0/6
- Log10 Kill Gross ([2]; 6.0 mg/kg/injection): 1.5
- Log10 Kill Net ([2]; 6.0 mg/kg/injection): -2.4
- MLS (median life span) ([2]; 6.0 mg/kg/injection): 12.0 days
- Weight Change ([2]; 6.0 mg/kg/injection): -3.7 grams
- % T/C ([2]; 6.0 mg/kg/injection): 118%
- 60 Day Survivors (L-1210 Leukemia; 4.0 mg/kg/injection): 1/6
- Log10 Kill Gross (L-1210 Leukemia; 4.0 mg/kg/injection): 9.4
- Log10 Kill Net (L-1210 Leukemia; 4.0 mg/kg/injection): 0.9
- MLS (median life span) (L-1210 Leukemia; 4.0 mg/kg/injection): 19.5 days
- Weight Change (L-1210 Leukemia; 4.0 mg/kg/injection): 1.0 grams
- % T/C (L-1210 Leukemia; 4.0 mg/kg/injection): 184%
- 60 Day Survivors (L-1210 Leukemia; 6.0 mg/kg/injection): 1/6
- Log10 Kill Gross (L-1210 Leukemia; 6.0 mg/kg/injection): 8.3
- Log10 Kill Net (L-1210 Leukemia; 6.0 mg/kg/injection): -0.1
- MLS (median life span) (L-1210 Leukemia; 6.0 mg/kg/injection): 18.5 days
- Weight Change (L-1210 Leukemia; 6.0 mg/kg/injection): -1.9 grams
- % T/C (L-1210 Leukemia; 6.0 mg/kg/injection): 175%

SMILES: [Cl][Pt]1([Cl])[NH]C2CCC(CC2)[NH]1 [Example 1, [SP-4-2-(c-is)]-Dichloro(1,4-cyclohexanediamine-N,N')-platinum]
- Fold resistance (resistance ratio) (L1210PtR4; [8]): 4.9 fold
- ID50 (L1210PtR4): 1.21 µg/mL
- effectiveness against parent L1210 and P388 leukemia in vivo vs cisplatin [3]: equally effective or superior to cisplatin
- antitumor activity, potency and response vs cisplatin [4]: superior to cisplatin both in potency and response
- Log10 Kill Net [1, 9]: 5.4
- % T/C [1, 9]: 234%
- Log10 Kill Net [1, 10]: 1.9
- % T/C [1, 10]: 177%
- Fold resistance (resistance ratio) (P388Pt4; [8]): 30 fold
- ID50 (P388Pt4): 1.43 µg/mL
- ID50 (P388S): 0.047 µg/mL
- cross resistance to Pt(DACH)Cl2-resistant L1210 cells in culture (L1210DACH): four
- Fold resistance (resistance ratio) (L1210DACH; ID50 resistant line / ID50 normal line, L1210DACH, 4320 min): 4.3 fold
- ID50 (L1210DACH; L1210DACH): 1.08 µg/mL
- cross resistance to cisplatin [5]: some degree of cross resistance to cisplatin
- effectiveness against cisplatin-resistant cells vs cisplatin [5]: more effective than cisplatin
- Fold resistance (resistance ratio) (L1210DDP5; [8]): 2.7 fold
- ID50 (L1210DDP5): 0.663 µg/mL
- ID50 (L1210S): 0.248 µg/mL
- 60 Day Survivors ([2]; 0.8 mg/kg/injection): 0/6
- Log10 Kill Gross ([2]; 0.8 mg/kg/injection): 2.1
- Log10 Kill Net ([2]; 0.8 mg/kg/injection): -2.2
- MLS (median life span) ([2]; 0.8 mg/kg/injection): 12.8 days
- % T/C ([2]; 0.8 mg/kg/injection): 126%
- 60 Day Survivors ([2]; 1.5 mg/kg/injection): 0/6
- Log10 Kill Gross ([2]; 1.5 mg/kg/injection): 4.5
- Log10 Kill Net ([2]; 1.5 mg/kg/injection): -1.7
- MLS (median life span) ([2]; 1.5 mg/kg/injection): 15.7 days
- % T/C ([2]; 1.5 mg/kg/injection): 154%
- 60 Day Survivors ([2]; 3.0 mg/kg/injection): 2/6
- Log10 Kill Gross ([2]; 3.0 mg/kg/injection): 5.5
- Log10 Kill Net ([2]; 3.0 mg/kg/injection): -1.0
- MLS (median life span) ([2]; 3.0 mg/kg/injection): 17.0 days
- % T/C ([2]; 3.0 mg/kg/injection): 167%
- 60 Day Survivors ([2]; 6.3 mg/kg/injection): 0/6
- Log10 Kill Gross ([2]; 6.3 mg/kg/injection): 0.1
- Log10 Kill Net ([2]; 6.3 mg/kg/injection): -2.7
- MLS (median life span) ([2]; 6.3 mg/kg/injection): 10.3 days
- % T/C ([2]; 6.3 mg/kg/injection): 101%
- 60 Day Survivors (L-1210 Leukemia; 0.8 mg/kg/injection): 0/6
- Log10 Kill Gross (L-1210 Leukemia; 0.8 mg/kg/injection): 3.4
- Log10 Kill Net (L-1210 Leukemia; 0.8 mg/kg/injection): -1.5
- MLS (median life span) (L-1210 Leukemia; 0.8 mg/kg/injection): 13.0 days
- % T/C (L-1210 Leukemia; 0.8 mg/kg/injection): 130%
- 60 Day Survivors (L-1210 Leukemia; 1.5 mg/kg/injection): 0/6
- Log10 Kill Gross (L-1210 Leukemia; 1.5 mg/kg/injection): 13.1
- Log10 Kill Net (L-1210 Leukemia; 1.5 mg/kg/injection): 4.6
- MLS (median life span) (L-1210 Leukemia; 1.5 mg/kg/injection): 23.0 days
- % T/C (L-1210 Leukemia; 1.5 mg/kg/injection): 217%
- 60 Day Survivors (L-1210 Leukemia; 3.0 mg/kg/injection): 1/6
- Log10 Kill Gross (L-1210 Leukemia; 3.0 mg/kg/injection): 11.5
- Log10 Kill Net (L-1210 Leukemia; 3.0 mg/kg/injection): 3.1
- MLS (median life span) (L-1210 Leukemia; 3.0 mg/kg/injection): 21.5 days
- % T/C (L-1210 Leukemia; 3.0 mg/kg/injection): 203%
- 60 Day Survivors (L-1210 Leukemia; 6.3 mg/kg/injection): 0/6
- Log10 Kill Gross (L-1210 Leukemia; 6.3 mg/kg/injection): 0.1
- Log10 Kill Net (L-1210 Leukemia; 6.3 mg/kg/injection): -1.9
- MLS (median life span) (L-1210 Leukemia; 6.3 mg/kg/injection): 10.7 days
- % T/C (L-1210 Leukemia; 6.3 mg/kg/injection): 101%

SMILES: NC1CCCCC1N.[Cl][Pt][Cl] (stereo not drawn) [[Pt(trans-l-DACH)Cl2], [SP-4-2-(1R-trans)]-dichloro(1,2-cyclohexanediamine-N,N')platinum, reference compound]
- ID50 (L1210PtR4): 0.161 µg/mL
- ID50 (P388Pt4): 0.83 µg/mL
- ID50 (P388S): 0.077 µg/mL
- cross resistance to Pt(DACH)Cl2-resistant L1210 cells in culture (L1210DACH; 4320 min): 77 fold
- ID50 (L1210DACH; L1210DACH): 4.57 µg/mL
- ID50 (L1210DDP5): 0.164 µg/mL
- ID50 (L1210S): 0.059 µg/mL
